Data: the supplement of paper PMC10307832

What was measured:
Test in all cases: relative viability (nuclei count vs DMSO), 5 days (fraction); higher = more cells survive
XMD8-85 + OSI-027 = compound: CN1CCN(CC1)C2=CC(=C(C=C2)NC3=NC=C4C(=N3)N(C5=CC=CC=C5C(=O)N4C)C)OC [XMD8-85] + COc1cccc2cc(-c3nc([C@H]4CC[C@H](C(=O)O)CC4)n4ncnc(N)c34)[nH]c12 [OSI-027] (partner 0.5 µM)
Method in brief: (§1)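 Lung cancer cell lines in 1536-well plates were dosed by pin tool the day after seeding, either with one drug alone or with a fixed anchor-drug dose plus five library-drug doses (not always all listed) in √10 steps. After 5 days, cells were fixed and their nuclei stained in one step (final 0.05% Triton X-100, 1% formaldehyde, 1 ug/ml Hoechst), then counted on 4× images. Relative viability is the nuclei count in treated wells divided by that in vehicle wells. Values are medians of duplicate plates.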

4EGI-1 + Pemetrexed = compound: O=C(O)C(Cc1ccccc1[N+](=O)[O-])=NNc1nc(-c2ccc(Cl)c(Cl)c2)cs1 (mixture of isomers) [4EGI-1] + Nc1nc2[nH]cc(CCc3ccc(C(=O)N[C@@H](CCC(=O)O)C(=O)O)cc3)c2c(=O)[nH]1 [Pemetrexed] (partner 0.2 µM)
Method in brief: as §1

XMD8-85 = compound: CN1CCN(CC1)C2=CC(=C(C=C2)NC3=NC=C4C(=N3)N(C5=CC=CC=C5C(=O)N4C)C)OC [XMD8-85]
Method in brief: (§2)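 Lung cancer cell lines were seeded into 1536-well plates, kept overnight at 37 °C and pinned with five library-drug doses (not always all listed) spaced by √10. After 5 days, nuclei were Hoechst-stained, imaged at 4× and counted with MetaXpress. Viability is treated-well nuclei over vehicle-well nuclei, taken as a median across plates. Plates needed control CV below 25% and at least one doubling.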

4EGI-1 = compound: O=C(O)C(Cc1ccccc1[N+](=O)[O-])=NNc1nc(-c2ccc(Cl)c(Cl)c2)cs1 (mixture of isomers) [4EGI-1]
Method in brief: as §2

Row | Cell Line | relative viability (XMD8-85 + OSI-027; first compound 0.08 µM) | relative viability (XMD8-85 + OSI-027; first compound 0.253 µM) | relative viability (XMD8-85 + OSI-027; first compound 0.8 µM) | relative viability (XMD8-85 + OSI-027; first compound 2.53 µM) | relative viability (XMD8-85 + OSI-027; first compound 8 µM) | relative viability (4EGI-1 + Pemetrexed; first compound 0.5 µM) | relative viability (4EGI-1 + Pemetrexed; first compound 5 µM) | relative viability (4EGI-1 + Pemetrexed; first compound 15.81 µM) | relative viability (4EGI-1 + Pemetrexed; first compound 50 µM) | relative viability (XMD8-85; 0.08 µM) | relative viability (XMD8-85; 0.253 µM) | relative viability (XMD8-85; 0.8 µM) | relative viability (XMD8-85; 2.53 µM) | relative viability (XMD8-85; 8 µM) | relative viability (4EGI-1; 0.5 µM) | relative viability (4EGI-1; 1.581 µM) | relative viability (4EGI-1; 5 µM) | relative viability (4EGI-1; 15.81 µM) | relative viability (4EGI-1; 50 µM) | relative viability (4EGI-1 + Pemetrexed; first compound 1.581 µM)
1 | A-427 | 0.466 | 0.573 | 0.482 | 0.52 | 0.337 | 0.982 | 0.99 | 0.838 | 0.228 | 1.04 | 1 | 1.07 | 1.12 | 0.74 | 1.05 | 0.762 | 1 | 0.86 | 0.254 | 
2 | LCLC-97TM1 | 0.485 |  | 0.623 | 0.565 | 0.536 | 0.181 | 0.195 | 0.165 | 0.114 | 0.915 | 0.991 | 1.24 | 1.09 | 1.05 | 1.01 |  | 1.19 | 0.963 | 0.632 | 
3 | LK-2 | 0.167 | 0.196 | 0.185 | 0.192 | 0.162 | 0.303 | 0.336 | 0.289 | 0.179 | 0.97 | 1.08 | 0.928 | 0.67 | 0.616 | 1.11 |  | 1.29 | 1.08 | 0.854 | 
4 | SK-MES-1 | 0.533 | 0.657 | 0.608 | 0.525 | 0.457 | 0.979 | 0.968 | 0.751 | 0.24 | 1.03 | 1.03 | 0.938 | 0.951 | 0.556 | 1.09 | 0.944 | 0.983 | 0.759 | 0.691 | 0.713
5 | LU99A | 0.264 | 0.31 | 0.306 | 0.33 | 0.258 | 0.177 | 0.166 | 0.248 | 0.154 | 0.895 | 1 | 1 | 0.973 | 0.831 | 0.989 | 0.859 | 0.999 | 0.885 | 0.564 | 0.179
6 | NCI-H1993 | 0.516 | 0.454 | 0.636 | 0.548 | 0.552 | 0.529 | 0.541 | 0.518 | 0.481 | 0.861 | 0.965 | 1.01 | 1.12 | 0.89 | 1 | 0.847 | 0.908 | 0.616 | 0.573 | 0.569
